Earlier results as cited in patent US20070184116A1, “Pharmaceutical formulation containing unmilled flutamide” (priority 2004, published 2007).

solubility in acid medium (acid medium, for example 0.1% hydrochloric acid (pH corresponds to gastric juice)): virtually insoluble | solubility in water (water): virtually insoluble
Structure (SMILES): CC(C)C(=O)Nc1ccc([N+](=O)[O-])c(C(F)(F)F)c1 [Flutamide, 2-methyl-N-[4-nitro-3-(trifluoromethyl)phenyl]propanamide]
